In general, IC50 refers to the point on the concentration scale where inhibition reaches its midpoint. A word on the viability: it is a read-out of living cells in per cent, often relative to untreated cells. Higher therefore signals better survival.

For series [1], the system named is four cancer cell lines (A-549, MCF-7, Panc-1, HT-29). As to the kind of experiment: Antiproliferative assay, average over four cancer cell lines (GI50). Conditions: Homo sapiens, read-out: Average IC50 (GI50).
Series [2] can be described thus: Cell viability (cytotoxicity) MTT assay in non-tumorigenic MCF-10A cells. It is filed as cell-based, human. As to conditions: human, MCF-10A mammary epithelial cells. (In general: Tetrazolium dyes change colour on reduction, which living cells bring about.)
Series [3] concerns HT-29 human colon cancer cell line. The experiment in a line: Antiproliferative assay, HT-29. As to conditions: Homo sapiens, HT-29, read-out: Antiproliferative Activity IC50 ± SEM, HT-29.
The test system of series [4] is A-549 human lung carcinoma cell line. As to the kind of experiment: Antiproliferative assay, A-549. As to conditions: Homo sapiens, A549, read-out: Antiproliferative Activity IC50 ± SEM, A-549.
Series [5] has as its system Panc-1 human pancreatic cancer cell line. As to the kind of experiment: Antiproliferative assay, Panc-1. As to conditions: Homo sapiens, PANC-1, read-out: Antiproliferative Activity IC50 ± SEM, Panc-1.
The subject of series [6] is MCF-7 human breast adenocarcinoma cell line. As to the kind of experiment: Antiproliferative assay, MCF-7. Conditions: Homo sapiens, MCF7, read-out: Antiproliferative Activity IC50 ± SEM, MCF-7.
Series [7] concerns the target T1, BRAF^V600E (Mus musculus, UniProt P28028, V585E).
T1 construct: Mouse full-length GST-tagged; purchased Invitrogen PV3849
As to the kind of experiment: BRAF V600E kinase inhibitory assay. In kind it is biochemical. As to conditions: for IC50: BRAF V600E, mean ± SEM, read-out: BRAF Inhibition IC50 ± SEM; for fold less potent than Erlotinib, BRAF^V600E: ratio of IC50 to Erlotinib. The source says:
Mouse full-length GST-tagged
developed using a phosphor screen.

In another series the target is EGFR (Homo sapiens, UniProt P00533). As to the kind of experiment: EGFR-TK inhibitory assay. Conditions: for fold less potent than Erlotinib, EGFR: ratio of IC50 to Erlotinib.
Series [8] relates to BRAF^V600E. Conditions: cited from earlier work.

T1 sequence (P28028 whole entry V585E): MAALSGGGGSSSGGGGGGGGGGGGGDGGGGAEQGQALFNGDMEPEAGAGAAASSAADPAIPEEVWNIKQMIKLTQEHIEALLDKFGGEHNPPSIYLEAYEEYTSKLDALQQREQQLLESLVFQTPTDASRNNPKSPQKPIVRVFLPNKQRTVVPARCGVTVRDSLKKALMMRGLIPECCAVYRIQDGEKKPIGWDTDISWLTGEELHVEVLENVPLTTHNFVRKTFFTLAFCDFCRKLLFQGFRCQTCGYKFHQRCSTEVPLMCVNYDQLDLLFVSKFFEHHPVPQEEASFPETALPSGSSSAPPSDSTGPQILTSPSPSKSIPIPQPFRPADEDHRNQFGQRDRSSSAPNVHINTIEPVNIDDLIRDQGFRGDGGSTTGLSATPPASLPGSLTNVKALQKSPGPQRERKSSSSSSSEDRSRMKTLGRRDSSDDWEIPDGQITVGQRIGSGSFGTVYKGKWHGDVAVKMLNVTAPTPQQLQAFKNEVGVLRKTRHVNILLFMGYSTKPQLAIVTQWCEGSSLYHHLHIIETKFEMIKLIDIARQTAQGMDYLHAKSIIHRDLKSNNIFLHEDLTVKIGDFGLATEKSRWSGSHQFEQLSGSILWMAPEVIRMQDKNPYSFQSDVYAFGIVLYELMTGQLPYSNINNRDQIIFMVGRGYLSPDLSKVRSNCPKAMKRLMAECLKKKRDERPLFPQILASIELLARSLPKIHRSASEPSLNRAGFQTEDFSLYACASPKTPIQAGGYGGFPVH
EGFR, sequence (P00533 669-1210): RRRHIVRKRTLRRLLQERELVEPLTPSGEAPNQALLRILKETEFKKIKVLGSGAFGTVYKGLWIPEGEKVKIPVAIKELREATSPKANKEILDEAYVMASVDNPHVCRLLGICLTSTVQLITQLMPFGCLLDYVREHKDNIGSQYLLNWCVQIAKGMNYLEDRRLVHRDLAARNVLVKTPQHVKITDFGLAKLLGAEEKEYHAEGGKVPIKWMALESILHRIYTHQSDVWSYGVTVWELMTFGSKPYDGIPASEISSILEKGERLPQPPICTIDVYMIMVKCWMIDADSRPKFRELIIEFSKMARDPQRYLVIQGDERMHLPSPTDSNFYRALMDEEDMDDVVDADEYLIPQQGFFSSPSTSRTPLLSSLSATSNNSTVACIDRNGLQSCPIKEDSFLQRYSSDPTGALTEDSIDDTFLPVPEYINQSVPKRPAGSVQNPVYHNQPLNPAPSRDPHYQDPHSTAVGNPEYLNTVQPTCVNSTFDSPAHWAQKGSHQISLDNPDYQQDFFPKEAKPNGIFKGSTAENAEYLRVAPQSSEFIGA

With `CCn1c(SCC(=O)Nc2ccc(-c3cc(-c4ccccc4)c(C#N)c(=O)[nH]3)cc2)nc2ccccc2c1=O` [Compound 7, N-(4-(5-Cyano-6-oxo-4-phenyl-1,6-dihydropyridin-2-yl)phenyl)-2-((3-ethyl-4-oxo-3,4-dihydroquinazolin-2-yl)thio)acetamide], the IC50 turned out to be 9300 nM in series [1]; 9800 ± 900 nM in series [3]; 9200 ± 800 nM in series [4]; 9300 ± 800 nM in [5]; 9100 ± 800 nM in [6]. The compound also gave a viability at 4 days, 50 µM in series [2] of 90%.

With `CCn1c(SCC(=O)Nc2ccc(-c3cc(-c4ccc(OC)cc4)c(C#N)c(=O)[nH]3)cc2)nc2ccccc2c1=O` [Compound 8, N-(4-(5-Cyano-4-(4-methoxyphenyl)-6-oxo-1,6-dihydropyridin-2-yl)phenyl)-2-((3-ethyl-4-oxo-3,4-dihydroquinazolin-2-yl)thio)acetamide], the IC50 on BRAF^V600E [7] came out at 220 ± 15 nM; in [1], 1600 nM; against EGFR it was 160 ± 12 nM; in series [3], 1700 ± 100 nM; in [4], 1500 ± 100 nM; in [5], 1700 ± 100 nM. Moreover, the IC50 in series [6] came out at 1400 ± 100 nM. In series [2], this compound gave a viability at 4 days, 50 µM of 89%.

For the compound `CCn1c(SCC(=O)Nc2ccc(-c3cc(-c4ccc(Cl)cc4)c(C#N)c(=O)[nH]3)cc2)nc2ccccc2c1=O` [Compound 9, N-(4-(4-(4-Chlorophenyl)-5-cyano-6-oxo-1,6-dihydropyridin-2-yl)phenyl)-2-((3-ethyl-4-oxo-3,4-dihydroquinazolin-2-yl)thio)acetamide], the IC50 at BRAF^V600E [7] was 290 ± 20 nM; in [1], 1800 nM; against EGFR, 190 ± 15 nM; in series [3] it was 2000 ± 100 nM; in series [4] it was 1800 ± 100 nM; in [5] it was 2000 ± 100 nM. Further, the IC50 in series [6] turned out to be 1600 ± 100 nM. For the same compound, the viability at 4 days, 50 µM in [2] stood at 96%.

For `CCn1c(SCC(=O)Nc2ccc(-c3cc(-c4ccc(Br)cc4)c(C#N)c(=O)[nH]3)cc2)nc2ccccc2c1=O` [Compound 10, N-(4-(4-(4-Bromophenyl)-5-cyano-6-oxo-1,6-dihydropyridin-2-yl)phenyl)-2-((3-ethyl-4-oxo-3,4-dihydroquinazolin-2-yl)thio)acetamide], the 50% inhibitory concentration (IC50) was 2500 nM in series [1]; 2700 ± 200 nM in series [3]; 2400 ± 200 nM in series [4]; 2600 ± 200 nM in [5]; 2200 ± 450 nM in series [6]. In series [2], this compound returned a viability at 4 days, 50 µM of 88%.

Consider `CCn1c(SCC(=O)Nc2ccc(-c3cc(-c4ccc(F)cc4)c(C#N)c(=O)[nH]3)cc2)nc2ccccc2c1=O` [Compound 11, N-(4-(5-Cyano-4-(4-fluorophenyl)-6-oxo-1,6-dihydropyridin-2-yl)phenyl)-2-((3-ethyl-4-oxo-3,4-dihydroquinazolin-2-yl)thio)acetamide], for which the IC50 in series [1] amounted to 3800 nM; in series [3], 4000 ± 300 nM; in series [4] it was 3700 ± 300 nM; in series [5] it was 3800 ± 300 nM; in [6], 3600 ± 300 nM. Besides, the viability at 4 days, 50 µM in [2] was 91%.

As for `N#Cc1c(-c2ccccc2)cc(-c2ccc(NC(=O)CSc3nc4ccccc4c(=O)n3-c3ccccc3)cc2)[nH]c1=O` [Compound 12, N-(4-(5-Cyano-6-oxo-4-phenyl-1,6-dihydropyridin-2-yl)phenyl)-2-((4-oxo-3-phenyl-3,4-dihydroquinazolin-2-yl)thio)acetamide], the IC50 in series [1] worked out at 7500 nM; in series [3], 7700 ± 700 nM; in series [4], 7500 ± 600 nM; in series [5] it was 7800 ± 700 nM; in series [6] it was 7200 ± 700 nM. This compound came in with a viability at 4 days, 50 µM in [2] of 86%.

In the case of `COc1ccc(-c2cc(-c3ccc(NC(=O)CSc4nc5ccccc5c(=O)n4-c4ccccc4)cc3)[nH]c(=O)c2C#N)cc1` [Compound 13, N-(4-(5-Cyano-4-(4-methoxyphenyl)-6-oxo-1,6-dihydropyridin-2-yl)phenyl)-2-((4-oxo-3-phenyl-3,4-dihydroquinazolin-2-yl)thio)acetamide], the IC50 in [1] was 3300 nM; in series [3] it was 3500 ± 300 nM; in [4], 3200 ± 300 nM; in series [5], 3400 ± 300 nM; in series [6], 3100 ± 300 nM. The compound also gave a viability at 4 days, 50 µM in series [2] of 87%.

Regarding `N#Cc1c(-c2ccc(Cl)cc2)cc(-c2ccc(NC(=O)CSc3nc4ccccc4c(=O)n3-c3ccccc3)cc2)[nH]c1=O` [Compound 14, N-(4-(4-(4-Chlorophenyl)-5-cyano-6-oxo-1,6-dihydropyridin-2-yl)phenyl)-2-((4-oxo-3-phenyl-3,4-dihydroquinazolin-2-yl)thio)acetamide], the IC50 is 4100 nM in [1]; 4200 ± 400 nM in [3]; 4100 ± 400 nM in [4]; 4200 ± 400 nM in series [5]; 3900 ± 400 nM in series [6]. Moreover, the viability at 4 days, 50 µM in series [2] is 89%.

Consider `N#Cc1c(-c2ccc(Br)cc2)cc(-c2ccc(NC(=O)CSc3nc4ccccc4c(=O)n3-c3ccccc3)cc2)[nH]c1=O` [Compound 15, N-(4-(4-(4-Bromophenyl)-5-cyano-6-oxo-1,6-dihydropyridin-2-yl)phenyl)-2-((4-oxo-3-phenyl-3,4-dihydroquinazolin-2-yl)thio)acetamide], for which the IC50 is 4800 nM in series [1]; 4900 ± 400 nM in series [3]; 4700 ± 400 nM in [4]; 5000 ± 400 nM in series [5]; 4600 ± 400 nM in [6]. The same compound returned a viability at 4 days, 50 µM in series [2] of 87%.

For the compound `N#Cc1c(-c2ccc(F)cc2)cc(-c2ccc(NC(=O)CSc3nc4ccccc4c(=O)n3-c3ccccc3)cc2)[nH]c1=O` [Compound 16, N-(4-(5-Cyano-4-(4-fluorophenyl)-6-oxo-1,6-dihydropyridin-2-yl)phenyl)-2-((4-oxo-3-phenyl-3,4-dihydroquinazolin-2-yl)thio)acetamide], the IC50 in series [1] worked out at 4900 nM; in series [3] it was 5100 ± 500 nM; in series [4], 4800 ± 500 nM; in [5] it was 5100 ± 500 nM; in series [6], 4700 ± 400 nM. In addition, in series [2], the viability at 4 days, 50 µM is 89%.

As to `C=CCn1c(SCC(=O)Nc2ccc(-c3cc(-c4ccccc4)c(C#N)c(=O)[nH]3)cc2)nc2ccccc2c1=O` [Compound 17, 2-((3-Allyl-4-oxo-3,4-dihydroquinazolin-2-yl)thio)-N-(4-(5-cyano-6-oxo-4-phenyl-1,6-dihydropyridin-2-yl)phenyl)acetamide], the IC50 in series [1] came to 8600 nM; in series [3], 9000 ± 700 nM; in series [4], 8400 ± 700 nM; in [5] it was 8900 ± 700 nM; in series [6], 8100 ± 700 nM. The compound further registered a viability at 4 days, 50 µM in series [2] of 89%.

As for `C=CCn1c(SCC(=O)Nc2ccc(-c3cc(-c4ccc(OC)cc4)c(C#N)c(=O)[nH]3)cc2)nc2ccccc2c1=O` [Compound 18, 2-((3-Allyl-4-oxo-3,4-dihydroquinazolin-2-yl)thio)-N-(4-(5-cyano-4-(4-methoxyphenyl)-6-oxo-1,6-dihydropyridin-2-yl)phenyl)acetamide], the IC50 at BRAF^V600E [7] came to 140 ± 10 nM; in [1], 1200 nM; at EGFR it was 110 ± 10 nM; in series [3] it was 1300 ± 100 nM; in series [4], 1100 ± 100 nM; in series [5], 1300 ± 100 nM. Moreover, the IC50 in [6] was 1000 ± 100 nM. For the same compound, on BRAF^V600E [7], the “fold less potent than Erlotinib, BRAF^V600E” value is 2 fold. This compound also gave a viability at 4 days, 50 µM in [2] of 90%. For the same compound, the “fold less potent than Erlotinib, EGFR” value at EGFR is given as 1.4 fold.

For the compound `C=CCn1c(SCC(=O)Nc2ccc(-c3cc(-c4ccc(Cl)cc4)c(C#N)c(=O)[nH]3)cc2)nc2ccccc2c1=O` [Compound 19, 2-((3-Allyl-4-oxo-3,4-dihydroquinazolin-2-yl)thio)-N-(4-(4-(4-chlorophenyl)-5-cyano-6-oxo-1,6-dihydropyridin-2-yl)phenyl)acetamide], the IC50 on BRAF^V600E [7] was 190 ± 12 nM; in series [1], 1400 nM; against EGFR, 140 ± 11 nM; in [3] it was 1600 ± 100 nM; in series [4], 1300 ± 100 nM; in [5] it was 1600 ± 100 nM. In [6], the IC50 was determined as 1200 ± 80 nM. Also, the “fold less potent than Erlotinib, BRAF^V600E” value at BRAF^V600E [7] turned out to be 3 fold. In [2], the viability at 4 days, 50 µM worked out at 91%. Besides, the “fold less potent than Erlotinib, EGFR” value on EGFR is listed as 1.8 fold.

`C=CCn1c(SCC(=O)Nc2ccc(-c3cc(-c4ccc(F)cc4)c(C#N)c(=O)[nH]3)cc2)nc2ccccc2c1=O` [Compound 21, 2-((3-Allyl-4-oxo-3,4-dihydroquinazolin-2-yl)thio)-N-(4-(5-cyano-4-(4-fluorophenyl) -6-oxo-1,6-dihydropyridin-2-yl)phenyl)acetamide]: the IC50 in series [1] came out at 2100 nM; in series [3], 2200 ± 100 nM; in [4], 2100 ± 200 nM; in series [5] it was 2200 ± 200 nM; in series [6], 1900 ± 100 nM. This compound had a viability at 4 days, 50 µM in series [2] of 87%.

`COc1cccc2c1C(=O)c1c(O)c3c(c(O)c1C2=O)C[C@@](O)(C(=O)CO)C[C@@H]3O[C@H]1C[C@H](N)[C@H](O)[C@H](C)O1` [Doxorubicin, reference compound]: the IC50 turned out to be 1100 nM in [1]; 1000 ± 100 nM in [3]; 1200 ± 100 nM in series [4]; 1400 ± 100 nM in series [5]; 900 ± 100 nM in series [6].

Turning to `C#Cc1cccc(Nc2ncnc3cc(OCCOC)c(OCCOC)cc23)c1` [Erlotinib], the IC50 in the series on BRAF^V600E [8] is […].

The values above are taken from paper PMC10674657, “Quinazolin-4-one/3-cyanopyridin-2-one Hybrids as Dual Inhibitors of EGFR and BRAF^V600E: Design, Synthesis, and Antiproliferative Activity” (Pharmaceuticals, 2023).
